Data: patent publication US5063245A, “Corticotropin-releasing factor antagonism compounds” (Nova Pharmaceutical Corporation, priority 1990, dated 1991)
pIC50: −log10 of the molar value. Structures can show the parent of a compound that is named as a salt. Where two headings read alike, the source gives them in different places.

Experiments:
CRF receptor = molecular target: T1, CRF receptor (Rattus norvegicus, UniProt P35353); assay: In vitro receptor binding: inhibition of specific binding of [125I]tyrosine-oCRF to rat cerebral cortex membranes; details: [125I]Tyr-oCRF 50-100 pM, 2 hours at room temperature
T1 construct: the cerebral cortex was removed and the tissue homogenized; from tissue; host or cells: cerebral cortex membranes of male Sprague-Dawley rats
T1 sequence (P35353 24-415): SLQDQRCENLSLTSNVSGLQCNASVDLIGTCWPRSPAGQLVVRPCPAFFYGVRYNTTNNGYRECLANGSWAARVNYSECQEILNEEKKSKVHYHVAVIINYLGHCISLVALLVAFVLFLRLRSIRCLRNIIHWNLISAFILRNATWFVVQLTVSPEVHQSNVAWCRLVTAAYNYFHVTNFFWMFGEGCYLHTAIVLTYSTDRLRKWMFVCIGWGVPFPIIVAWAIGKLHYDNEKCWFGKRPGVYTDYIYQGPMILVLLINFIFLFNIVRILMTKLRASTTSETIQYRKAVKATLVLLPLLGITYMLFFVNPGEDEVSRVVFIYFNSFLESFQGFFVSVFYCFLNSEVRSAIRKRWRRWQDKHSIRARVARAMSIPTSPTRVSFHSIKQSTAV
Method: The potency of the compounds of the invention as inhibitors of the specific binding of radiolabeled CRF to rat cerebral cortex membranes was examined using a standard in vitro radioligand binding technique. […] The homogenate was centrifuged at 48,000×g for 10 minutes at 4° C. The supernatant was removed, the tissue pellet suspended in the original volume of fresh homogenization buffer using a Polytron and centrifuged as before. […] Incubation buffer consists of 50 mM Hepes (pH 7.0 at 22° C.) containing 10 mM MgCl2, 2 mM EGTA, 0.1 mM bacitracin, 100 KIU (kallikrein inhibitor units)/mL aprotinin and 0.1% BSA (bovine serum albumin). […] Nonspecific binding was determined in the presence of 1 μM oCRF. The binding reaction was allowed to proceed for 2 hours at room temperature. Bound radioligand was separated from the incubation medium by centrifugation in a Beckman microfuge for 5 minutes at 12,000×g. The supernatant was aspirated and the resulting pellet was washed with 1 mL of cold phosphate buffered saline (pH 7.2) containing 0.01% of Triton X-100.
Tyr-oCRF to rat cortical membranes was determined on at least three separate occasions using 8-10 concentrations of each compound and utilizing triplicate incubations. The IC50 and apparent Hill coefficient for each compound were calculated using a computer-assisted log-logit analysis.

[1] = molecular target: CRF-stimulated adenylate cyclase; assay: Inhibition of CRF-stimulated adenylate cyclase activity (rat frontal cortex); assay type: biochemical; details: 1 μM oCRF, 37° C., 10 minutes
Excerpt: CRF antagonist activity is established by the ability of the compounds to antagonize CRF-stimulated adenylate cyclase activity, it having been established that CRF receptors are coupled to a guanine nucleotide regulatory protein that activates adenylate cyclase [G. Aguilera et al., Neuroendocrinology, 43, 79 (1986); G. Battaglia et al., Synapse, 1, 572 (1987)].
Male Sprague-Dawley rats (175-250 g) were sacrificed by decapitation, the frontal cortex was dissected and homogenized in 30 volumes (w/v) of ice-cold buffer (50 mM Tris HCl, 10 mM MgCl2, 2 mM EGTA; pH 7.2 at 22° C.). The homogenate was centrifuged at 40,000×g for 3 minutes (4° C.), the supernatant discarded and the pellet resuspended in original volume of fresh homogenization buffer. Following centrifugation at 40,000×g for 30 minutes, the resulting pellet was suspended to a tissue concentration of 20 mg original wet weight of tissue per mL (approximately 40-60 μg protein/mL). For determination of basal adenylate cyclase activity, assays are carried out at 37° C. for 10 minutes in 250 μL of buffer containing 100 mM Tris HCl, 10 mM MgCl2, 0.4 mM EGTA, 0.1% BSA, 1 mM isobutylmethylxanthine (IBMX), 3 units/tube phosphocreatine kinase, 5 mM creatine phosphate, 100 μM guanosine. Maximal stimulation of adenylate cyclase activity was accomplished by the addition of 10^-6 M oCRF. Stimulated enzyme activity generally represented a 75-95% increase over basal levels. Reactions were initiated by the addition of tissue and terminated by the addition of 150 μL of 50 mM Tris HCl, 45 mM ATP, 2% sodium dodecyl sulfate (SDS), and [^3 H] cAMP (approximately 40,000 dpm). The [^3 H]cAMP was added to each assay tube to monitor recovery of cAMP during subsequent chromatography steps. Separation of [^32 P]cAMP from [^32 P]ATP was accomplished by sequential elution over Dowex and alumina columns. The eluate (4 mL) was collected in 20 mL scintillation vials to which 8 mL of Beckman EP fluor was added. Vials were shaken for 30 minutes prior to measuring ^3 H and ^32 P by scintillation counting. All data were fed directly from the liquid scintillation counter via RS232 port to a VAX 8300 computer. Individual data points were expressed as pmoles of cAMP formed/10 minutes/mg protein. Protein content of tissue samples was measured using the BioRad method with bovine serum albumin serving as the standard.
Determination of antagonist activity was accomplished by addition of at least six concentrations of the compound (10^-8 -10^-4 M), evaluated in triplicate, in the presence of a maximally stimulating concentration of oCRF (1 μM). IC50 values were derived from a log-logit transformation of the data on a Vax 8300.

[2] = Table I, Formula I, read-out: Inhibition of CRF Binding, Rat Cerebral Cortex Membrane, IC50
[3] = Table II, Formula II (disulfides), read-out: Inhibition of CRF Binding, Rat Cerebral Cortex Membrane, IC50
[4] = Table II, Formula II (disulfides)
[5] = Inhibition of CRF Binding, Rat Cerebral Cortex Membrane, IC50, Table I, Formula I

Row | Compound | pIC50 (CRF receptor; [2]) | pIC50 (CRF receptor; [3]) | pIC50 ([1]; Table I, Formula I) | further results
1 | Cc1c(SC#N)c(=O)n(-c2ccc(I)cc2)n1C [Formula I: 4-IPh, CH3, CH3, SCN, 2,3-dimethyl-5-oxo-1-(4-iodophenyl)-3-pyrazolin-4-yl thiocyanate] | 5.19 | – | – | –
2 | Cc1c(SC#N)c(=O)n(C2CCCCC2)n1C [Formula I: C6 H11, CH3, CH3, SCN, 1-cyclohexyl-2,3-dimethyl-5-oxo-3-pyrazolin-4-yl thiocyanate] | 4.82 | – | 4.45 | –
3 | Cc1c(SC#N)c(=O)n(-c2ccc3ccccc3c2)n1C [Formula I: 2-Naphthyl, CH3, CH3, SCN, 2,3-dimethyl-1-naphthyl-5-oxo-3-pyrazolin-4-yl thiocyanate] | 5.42 | – | – | –
4 | Cc1c(SC#N)c(=O)n(C)n1Cc1ccccc1 [2-benzyl-1,3-dimethyl-5-oxo-3-pyrazolin-4-yl thiocyanate, hemifumarate] | – | – | 4.40 | pIC50 (CRF receptor; [5]): 4.47
5 | CCn1c(C)c(SC#N)c(=O)n1CC [Formula I: C2 H5, C2 H5, CH3, SCN, 1,2-diethyl-3-methyl-5-oxo-3-pyrazolin-4-yl thiocyanate] | – | – | 4.53 | pIC50 (CRF receptor; [5]): 3.95
6 | Cc1c(SC(Cl)(Cl)Cl)c(=O)n(-c2ccccc2)n1C [Formula I: Ph, CH3, CH3, SCCl3, 2,3-Dimethyl-5-Oxo-1-Phenyl-3-4-trichloromethylthio-Pyrazoline] | – | – | 5.02 | pIC50 (CRF receptor; [5]): 4.69
7 | CCn1c(C)c(SC#N)c(=O)n1Cc1ccccc1 [Formula I: CH2 Ph, CH2 CH3, CH3, SCN, 1-benzyl-2-ethyl-3-methyl-5-oxo-3-pyrazolin-4-yl thiocyanate] | 4.77 | – | 4.40 | –
8 | CCn1c(C)c(SC#N)c(=O)n1-c1ccc([N+](=O)[O-])cc1 [Formula I: 4-NO2 Ph, C2 H5, CH3, SCN, 2-ethyl-3-methyl-5-oxo-1-(4-nitrophenyl)-3-pyrazolin-4-yl thiocyanate] | 5.24 | – | 5.70 | –
9 | Cc1c(SC#N)c(=O)n(-c2c(Cl)cccc2Cl)n1C [Formula I: 2,6-Cl2 Ph, CH3, CH3, SCN, 2,3-dimethyl-5-oxo-1-(2,6-dichlorophenyl)-3-pyrazolin-4-yl thiocyanate] | – | – | 4.52 | pIC50 (CRF receptor; [5]): 4.72
10 | Cc1c(SC#N)c(=O)n(-c2cccc(C#N)c2)n1C [Formula I: 3-CNPh, CH3, CH3, SCN, 2,3-dimethyl-5-oxo-1-(3-cyanophenyl)-3-pyrazolin-4-yl thiocyanate] | 4.81 | – | 5.16 | –

The next lines start with results.

Row | pIC50 (CRF receptor; [2]) | pIC50 (CRF receptor; [3]) | pIC50 ([1]; Table I, Formula I) | Compound | further results
11 | – | 5.09 | – | Cn1c(CN2CCOCC2)c(SSc2c(CN3CCOCC3)n(C)n(-c3ccccc3)c2=O)c(=O)n1-c1ccccc1 [Formula II: Ph, CH3, MorCH2, 2HCl, 2-methyl-3-morpholinylmethyl-5-oxo-1-phenyl-3-pyrazolin-4-yl disulfide] | –
12 | 4.84 | – | 4.30 | Cn1c(N)c(SC#N)c(=O)n1-c1ccccc1 [Formula I: Ph, CH3, NH2, SCN, 3-amino-2-methyl-5-oxo-1-phenyl-3-pyrazolin-4-yl thiocyanate] | –
13 | – | 5.66 | – | Cc1c(SSc2c(C)n(C)n(-c3ccccc3)c2=O)c(=O)n(-c2ccccc2)n1C [Formula II: Ph, CH3, CH3, 2,3-Dimethyl-5-Oxo-1-Phenyl-3-Pyrazolin-4-yl Disulfide] | pIC50 [1, 4]: 5.96
14 | – | 5.32 | – | CCn1c(C)c(SSc2c(C)n(CC)n(-c3ccccc3)c2=O)c(=O)n1-c1ccccc1 [Formula II: Ph, C2 H5, CH3, 2-ethyl-3-methyl-5-oxo-1-phenyl-3-pyrazolin-4-yl disulfide] | pIC50 [1, 4]: 6.00
15 | 5.19 | – | 5.52 | CC(=O)Nc1cccc(-c2c(SC#N)c(=O)n(-c3ccccc3)n2C)c1 [Formula I: Ph, CH3,3-AcNHPh, SCN, 2-methyl-5-oxo-1-phenyl-3-(3-acetamidophenyl)-3-pyrazolin-4-yl thiocyanate] | –
16 | 4.72 | – | 4.50 | CCc1c(SC#N)c(=O)n(-c2ccccc2)n1C [Formula I: Ph, CH3, CH2 CH3, SCN, 3-ethyl-2-methyl-5-oxo-1-phenyl-3-pyrazolin-4-yl thiocyanate] | –
17 | – | 5.37 | – | CCn1c(C)c(SSc2c(C)n(CC)n(Cc3ccccc3)c2=O)c(=O)n1Cc1ccccc1 [Formula II: CH2 Ph, C2 H5, CH3, 1-benzyl-2-ethyl-3-methyl-5-oxo-3-pyrazolin-4-yl disulfide] | pIC50 [1, 4]: 5.42
18 | 4.49 | – | 4.16 | Cc1c(SC#N)c(=O)[nH]n1-c1ccc([N+](=O)[O-])cc1 [Formula I: H, 4-NO2 Ph, CH3, SCN] | –
19 | – | 5.48 | – | CCc1c(SSc2c(CC)n(C)n(-c3ccccc3)c2=O)c(=O)n(-c2ccccc2)n1C [Formula II: Ph, CH3, C2 H5, 3-ethyl-2-methyl-5-oxo-1-phenyl-3-pyrazolin-4-yl disulfide] | pIC50 [1, 4]: 5.48
20 | – | 5.48 | – | Cc1c(SSc2c(C)n(C)n(-c3ccc4ccccc4c3)c2=O)c(=O)n(-c2ccc3ccccc3c2)n1C [Formula II: 2-Naphthyl, CH3, CH3, HCl, 2,3-dimethyl-1-naphthyl-5-oxo-3-pyrazolin-4-yl disulfide] | –
21 | 4.80 | – | 4.71 | Cc1c(SC#N)c(=O)n(-c2ccccc2)n1C [Formula I: Ph, CH3, CH3, SCN, 2,3-dimethyl-5-oxo-1-phenyl-3-pyrazolin-4-yl thiocyanate] | –
22 | – | 5.19 | – | Cc1c(SSc2c(C)n(C)n(-c3ccccc3)c2=O)c(=O)n(-c2ccccc2)n1C [Formula II: Ph, CH3, CH3, HCl, 2,3-Dimethyl-5-Oxo-1-Phenyl-3-Pyrazolin-4-yl Disulfide] | pIC50 [1, 4]: 5.60
23 | – | 5.29 | – | Cc1c(SSc2c(C)n(C)n(-c3ccc(I)cc3)c2=O)c(=O)n(-c2ccc(I)cc2)n1C [Formula II: 4-IPh, CH3, CH3, 2,3-dimethyl-5-oxo-1-(4-iodophenyl)-3-pyrazolin-4-yl disulfide] | –
24 | 4.40 | – | – | Cn1c(CN2CCOCC2)c(SC#N)c(=O)n1-c1ccccc1 [Formula I: Ph, CH3, MorCH2, SCN, 2-methyl-3-mopholinomethyl-5-oxo-1-phenyl-3-pyrazolin-4-yl thiocyanate] | –
25 | – | 5.37 | – | Cc1c(SSc2c(C)n(C)n(-c3cccc(Cl)n3)c2=O)c(=O)n(-c2cccc(Cl)n2)n1C [Formula II: 6-Cl-2-Pyr, CH3, CH3, 2,3-dimethyl-5-oxo-1-(6-chloro-2-pyridyl)-3-pyrazolin-4-yl disulfide] | –
